# In ChEMBL document CHEMBL1201862, “PubChem BioAssay data set” (2004):
#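 48-hour exposure; five concentrations; linearly interpolated endpoints. GI50 = concentration required for 50% inhibition of growth.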 Calls of active or inactive are those of the source. No stated cut-off is given here; in the data, active = GI50 up to about 1.1 µM and inactive = higher.
# What was measured:
# Experiment in all cases: inhibition of tumour cell growth, NCI panel, 48 h
# ACHN = test system: ACHN
# HOP-62 = test system: HOP-62
# MDA-N = test system: MDA-N
# HT-29 = test system: HT-29
# 786-0 = test system: 786-0
# SN12C = test system: SN12C
# HOP-92 = test system: HOP-92
# SNB-19 = test system: SNB-19
# HCT-116 = test system: HCT-116
# TK-10 = test system: TK-10
# HL-60 = test system: HL-60
# PC-3 = test system: PC-3
# MDA-MB-231 = test system: MDA-MB-231
# CCRF-CEM = test system: CCRF-CEM
# CAKI-1 = test system: CAKI-1
# Malme-3M = test system: Malme-3M
# SK-MEL-2 = test system: SK-MEL-2
# SF-539 = test system: SF-539
# SK-MEL-5 = test system: SK-MEL-5
# M14 = test system: M14
SMILES,GI50 (ACHN),GI50 (HOP-62),GI50 (MDA-N),GI50 (HT-29),GI50 (786-0),GI50 (SN12C),GI50 (HOP-92),GI50 (SNB-19),GI50 (HCT-116),GI50 (TK-10),GI50 (HL-60),GI50 (PC-3),GI50 (MDA-MB-231),GI50 (CCRF-CEM),GI50 (CAKI-1),GI50 (Malme-3M),GI50 (SK-MEL-2),GI50 (SF-539),GI50 (SK-MEL-5),GI50 (M14)
CNS(=O)(=O)c1ccccc1C(=N)c1ccccc1,> 100 µM (inactive),> 100 µM (inactive),> 100 µM (inactive),> 100 µM (inactive),> 100 µM (inactive),> 100 µM (inactive),> 100 µM (inactive),> 100 µM (inactive),> 100 µM (inactive),> 100 µM (inactive),> 100 µM (inactive),> 100 µM (inactive),> 100 µM (inactive),> 100 µM (inactive),> 100 µM (inactive),> 100 µM (inactive),> 100 µM (inactive),> 100 µM (inactive),> 100 µM (inactive),> 100 µM (inactive)
CCCCCCCC(=O)N/N=C/c1ccc(Sc2nccn2C)c([N+](=O)[O-])c1,21.9 µM (inactive),17.5 µM (inactive),16.5 µM (inactive),9.79 µM (inactive),14.9 µM (inactive),14.5 µM (inactive),3.33 µM (inactive),21.4 µM (inactive),14.4 µM (inactive),26.6 µM (inactive),0.27 µM (active),15.6 µM (inactive),15 µM (inactive),0.538 µM (active),15.5 µM (inactive),14.4 µM (inactive),16.6 µM (inactive),17 µM (inactive),12.9 µM (inactive),13.2 µM (inactive)
C1CSCCCSCCCSCCCSCCCSC1,29.2 µM (inactive),47.4 µM (inactive),32.3 µM (inactive),22.9 µM (inactive),40.2 µM (inactive),37.2 µM (inactive),24.1 µM (inactive),37.9 µM (inactive),31.2 µM (inactive),37.2 µM (inactive),14.2 µM (inactive),19 µM (inactive),29.2 µM (inactive),8.55 µM (inactive),17.7 µM (inactive),33.3 µM (inactive),20.7 µM (inactive),43.7 µM (inactive),14.2 µM (inactive),29.7 µM (inactive)
C=C1c2nc3ccccc3n2C=C(c2ccccc2)N1c1ccc(Cl)cc1,9.18 µM (inactive),18.7 µM (inactive),78.9 µM (inactive),18.6 µM (inactive),5.83 µM (inactive),> 63.5 µM (inactive),26.8 µM (inactive),46.1 µM (inactive),18.5 µM (inactive),13.4 µM (inactive),> 100 µM (inactive),25.7 µM (inactive),17.4 µM (inactive),> 100 µM (inactive),7.08 µM (inactive),7.85 µM (inactive),69.5 µM (inactive),7.89 µM (inactive),15.3 µM (inactive),17.1 µM (inactive)
CN1N=C(c2ccccc2)C(C(c2ccccc2[N+](=O)[O-])C2C(=O)N(C)N=C2c2ccccc2)C1=O (stereo not given),> 100 µM (inactive),93.1 µM (inactive),> 100 µM (inactive),> 68.7 µM (inactive),> 70 µM (inactive),> 95.1 µM (inactive),> 80.9 µM (inactive),> 100 µM (inactive),> 78.7 µM (inactive),> 100 µM (inactive),18.7 µM (inactive),67.5 µM (inactive),> 100 µM (inactive),26.8 µM (inactive),> 100 µM (inactive),> 100 µM (inactive),66.5 µM (inactive),> 55.5 µM (inactive),> 100 µM (inactive),> 100 µM (inactive)
COC(=O)C12C3C4C1C1C2C3C41C(=O)NC(C)(C)CC(=O)O (stereo not given),> 100 µM (inactive),> 100 µM (inactive),> 100 µM (inactive),> 100 µM (inactive),> 100 µM (inactive),> 100 µM (inactive),> 100 µM (inactive),> 100 µM (inactive),> 100 µM (inactive),> 100 µM (inactive),> 100 µM (inactive),> 100 µM (inactive),> 100 µM (inactive),> 100 µM (inactive),> 100 µM (inactive),> 100 µM (inactive),> 100 µM (inactive),> 100 µM (inactive),> 100 µM (inactive),> 100 µM (inactive)
N/C(=N\N=C\c1c[nH]c2ccccc12)Nc1ccccc1,0.671 µM (active),0.308 µM (active),0.0219 µM (active),0.191 µM (active),0.318 µM (active),0.535 µM (active),0.392 µM (active),0.54 µM (active),0.214 µM (active),1.28 µM (inactive),0.144 µM (active),0.201 µM (active),0.624 µM (active),0.918 µM (active),0.519 µM (active),0.215 µM (active),0.345 µM (active),0.332 µM (active),0.176 µM (active),0.11 µM (active)
